Data from publication PMC9953468, “In Silico, In Vitro, and Ex Vivo Biological Activity of Some Novel Mebeverine Precursors” (Biomedicines, 2023).
Where “and” joins values, the source holds several entries; their conditions need not be identical. Equal values may be shown once. Entries after “also recorded” stand apart in the source; their conditions may differ. Where a name gives a salt, the structure may show the parent alone. Read-outs that look alike come from different tables or passages of the source. Marks after values point to notes of the source that are not given here.

Assays:
MTT cell viability assay [1] = assay type: cell-based, human; settings: human, ± SD, read-out: In vitro cytotoxicity (IC50)
Protocol: (§1) In order to evaluate the in vitro biocompatibility of the experimental compounds, a series of cell viability assays were performed against human malignant leukemic cell lines (LAMA-84, K-562) as well as normal murine fibroblast cells (CCL-1). All cell lines were purchased from the German Collection of Microorganisms and Cell Cultures (DSMZ GmbH, Braunschweig, Germany). Cell cultures were cultivated in a growth medium RPMI 1640 supplemented with 10% fetal bovine serum (FBS), 5% L-glutamine, and incubated under standard conditions of 37 °C and 5% humidified CO2 atmosphere.
(§2) The experimental design involved a number of cytotoxicity assays that measured cell growth inhibition by the newly synthesized compounds. Cell viability was evaluated using a standard MTT-based colorimetric assay. Exponential-phased cells were harvested and seeded (100 μL/well) in 96-well plates at the appropriate density (3 × 10^5) for the suspension cultures (LAMA-84 and K-562) and 1.5 × 10^5 for the adherent one (CCL-1). Cells were treated and incubated with various concentrations of the experimental compounds in the concentration range of 400-6.25 µM. After exposure time of 72 h, a filter-sterilized MTT substrate solution (5 mg/mL in PBS) was added to each well of the culture plate. A further 1–4 h incubation allowed for the formation of purple insoluble formazan precipitates. The latter were dissolved in isopropyl alcohol solution containing 5% formic acid prior to absorbance measurement at 550 nm using a microplate reader (Labexim LMR-1). Collected absorbance values were blanked against MTT and isopropanol solution and normalized to the mean value of the untreated control (100% cell viability). Semi-logarithmic “dose–response” curves were constructed and the half-inhibitory concentrations of the screened compounds against each tested cell line were calculated. Values of p ≤ 0.05 were considered statistically significant.

MTT cell viability assay [2] = assay type: cell-based; settings: mouse, CCL-1 normal fibroblast cells, CCL-1, normal murine fibroblast cells, read-out: In vitro cytotoxicity (IC50)
Protocol: as §1, §2

[3] = test system: SM preparations from the corpus gastric muscle; assay: Ex vivo bioelectrical activity of smooth muscle preparations, single sucrose gap method; design: species or system Wistar rats; settings: 5 × 10^−5 M; for Amplitude of slow waves, Measured value / Amplitude of spike potentials, Measured value / Number of slow waves, Measured value / Number of spike potentials, Measured value: 10 min, n = 7, mean ± SEM; for effect on bioelectrical activity (slow waves, spike potentials): in words; for Changes in the membrane potential: base activity taken as 100%, ↑ depolarization, ↓ hyperpolarization
Protocol: Adult male Wistar rats weighing 280–300 g were used. Animals were housed in standard laboratory conditions (23 to 25 °C, 50–55% humidity, 12/12 h light/dark cycle), while food and water were provided ad libitum.
Circular SM preparations were dissected from the corpus gastric muscle (26–28 mm long and 0.8–0.9 mm wide; without mucosa). Two or three muscle strips were taken from the rat stomach. The number of SM preparations used for each data point is indicated by n. After dissection, the tissues must prevent loss of viability, so during the dissection, the tissues were systematically moistened with a solution (NaCl:KCl:CaCl2 in ratio 27.2:1.1:1) prepared at 4 °C.
The BEA of SM preparations was investigated by means of the single sucrose gap method with silver non-polarizable freshly chlorinated electrodes. The muscle strips were divided into 3 zones: two electrode sections were flushed with isotonic KCl solution and Krebs solution (pH 7.3), respectively, and separated by a sucrose layer of high electric resistance. Krebs contained the following (in mM): NaCl 120; KCl 5.9; CaCl2 2.5; MgCl2 1.2; NaH2PO4 1.2; NaHCO3 15.4; glucose 11.5. All the ingredients for this solution were of analytical grade and obtained from Merck (Darmstadt, Germany). Deionized water (18.2 mX/cm^2) was used thoroughly. The KCl solution is similar to the Krebs solution but with an equimolar substitution of NaCl with KCl. An isotonic sucrose solution, due to its very high specific resistance (about 10^6 Ω·cm), provides the best possible separation of the sucrose solution from the physiological solution in the “normal” pool, on the one hand, and the solution providing a zero value of the membrane potential in the pool with another recording electrode.
The inflow rate of each solution (Krebs, KCl, and isotonic sucrose solution) was controlled by a needle valve and continuously aerated with a mixture of 95% O2 and 5% CO2, and the temperature was maintained at 37 °C. A potential difference between the two end sections of the gap (control conditions) was achieved by means of silver non-polarizable, freshly chlorinated electrodes and after a 40-min period of adaptation and stabilization was accepted as the initial (control). The Krebs solution was changed several times during the adaptation period. The viability of the SM preparations was periodically tested by treatment with 1 × 10^−6 M ACh.
The membrane potential value was visualized by means of a Linseis recorder (Selb, Germany). A pair of measuring electrodes is located on both sides of the sucrose sections. The pH (pH 7.3; 37 °C) of the Krebs bathing solution was measured before each experiment by pH-meter HI5521 (Hanna Instruments Inc., Woonsocket, RI, USA). […]
The new substances were dissolved initially in dimethyl sulphoxide (DMSO) to prepare a 5 × 10^−2 M stock solution. Further dilutions were made in distilled deionized water and were applied by adding aliquots of their concentrated solutions to the tissue bath.

5-HT3 receptor = assay: Immunohistochemical analysis of 5-HT3 expression in gastric SM strips; design: species or system Wistar rats; key to 5-HT3 expression, 5-HT / 5-HT3 expression, Response to Compound: −: absent; +: low; ++: moderate; +++: strong; settings: for 5-HT3 expression, Response to Compound: SM preparations incubated with the compound; for 5-HT3 expression in SM preparations: immunohistochemical staining after 1 h incubation, in words
Protocol: […] Then, each SM strip was fixed in 10% neutral buffer formalin for 24–48 h and submitted for standard processing with hematoxylin and eosin staining.
The SM fragments from a rat’s gastric wall were fixed in a 10% neutral formalin solution and embedded in paraffin. Paraffin sections of 5 μm thickness were subjected to hematoxylin and eosin (H-E) staining for histochemical analysis.
Sections of the SM fragments from the wall of a rat’s stomach with a thickness of 5 µm were deparaffinized, then subjected to antigenic detection of the epitopes with citrate buffer, and an endogenous peroxidase blockade was made with hydrogen […] 3%, a kit was used to block the endogenous biotin, and a reagent was used to block non-specific binding (Superblock, Scy Tek, Santa Cruz Biotech. Inc. Heidelberg, Germany) follows incubate for 24 h (at 4 °C) with monoclonal mouse anti-5-HT3, next incubated with a secondary antibody: biotinylated anti-rabbit for 10 min at room temperature. The reaction was visualized with 3,3′-diaminobenzidine tetrachloride and counterstained with Mayer’s hematoxylin.
A quantitative and statistical analysis of immunohistochemical reaction using the Olympus DP-Soft image system (version 4.1 for Windows) was carried out on a Microphot-SA (Nikon, Japan) microscope equipped with a Camedia-5050 Z digital camera (Olympus, Japan). The analysis was performed on sections from the SM strips from the stomach of Wistar rats (n = 6 for each group). Five sections of the SM strips were measured, and the percentage of cells expressing 5-HT3 in the circular and longitudinal layer of SM cells, as well as in the myenteric plexus of the stomach, was determined. Each antibody was analyzed for five fields, in each of them the average number of cells with positive unit area response at ×200 magnification.

K-562 = assay: MTT cell viability assay; assay type: cell-based, human; settings: K-562, Blast phase CML (bcr-abl+), 72 h, ± SD
Protocol: as §1, §2

LAMA-84 = assay: MTT cell viability assay; assay type: cell-based, human; settings: LAMA-84, CML in blast crisis (bcr-abl+), 72 h, ± SD
Protocol: as §1, §2

[4] = test system: Eighteen tested microorganisms (Gram-positive bacteria, Gram-negative bacteria, yeasts, fungi); assay: Antimicrobial activity, agar well diffusion method, whole panel; assay type: cell-based; settings: whole panel of tested microorganisms, in words
Source text: Eighteen tested microorganisms including five Gram-positive bacteria (Bacillus subtilis ATCC 6633, Bacillus amyloliquefaciens 4BCL-YT, Staphylococcus aureus ATCC 25923, Listeria monocytogenes NBIMCC 8632, Enterococcus faecalis ATCC 19433), five Gram-negative bacteria (Salmonella enteritidis ATCC 13076, Klebsiella sp.—clinical isolate, Escherichia coli ATCC 25922, Proteus vulgaris ATCC 6380, Pseudomonas aeruginosa ATCC 9027), two yeasts (Candida albicans NBIMCC 74, Saccharomyces cerevisiae ATCC 9763) and six fungi (Aspergillus niger ATCC 1015, Aspergillus flavus, Penicillium sp., Rhizopus sp., Mucor sp.—plant isolates, Fusarium moniliforme ATCC 38932) from the collection of the Department of Microbiology at the University of Food Technologies—Plovdiv, Bulgaria, were selected for the antimicrobial activity test.
The antimicrobial activity of the samples was determined by the agar well diffusion method. The tested bacteria B. subtilis and B. amyloliquefaciens were cultured on LBG agar at 30 °C. The test bacteria S. aureus, L. monocytogenes, E. faecalis, S. enteritidis, Klebsiella sp., E. coli, P. vulgaris and P. aeruginosa were cultured on LBG agar at 37 °C for 24 h. The yeast C. albicans was cultured on MEA at 37 °C, while S. cerevisiae was cultured on MEA at 30 °C for 24 h. The fungi A. niger, A. flavus, Penicillium sp., Rhizopus sp., Mucor sp., and F. moniliforme were grown on MEA at 30 °C for 7 days or until sporulation.
The inocula of the tested bacteria/yeasts were prepared by homogenization of a small amount of biomass in 5 mL of sterile 0.5% NaCl. […] The number of viable cells and fungal spores was determined using a bacterial counting chamber Thoma (Poly-Optik, GmbH, Bad Blankenburg, Germany). […] Next, the inoculated media were transferred in a quantity of 18 mL in sterile Petri plates (d = 90 mm) (Gosselin™, Hazebrouck, France) and allowed to harden. […]
The antimicrobial activity was determined by measuring the diameter of the inhibition zones around the wells on the 24th and 48th h of incubation. […]

[5] = K-562 cells (blast phase chronic myeloid leukemia), K-562, Blast phase CML (bcr-abl+)
[6] = LAMA-84, CML in blast crisis (bcr-abl+)

SMILES	IC50 at 72 h (MTT cell viability assay [1]; [5])	IC50 at 72 h (MTT cell viability assay [1]; [6])	IC50 at 72 h (MTT cell viability assay [2])	Amplitude of slow waves, Measured value [3]	Amplitude of spike potentials, Measured value [3]	Number of slow waves, Measured value [3]	Number of spike potentials, Measured value [3]	effect on bioelectrical activity (slow waves, spike potentials) [3]	Changes in the membrane potential [3]	5-HT3 expression, Response to Compound (5-HT3 receptor)	5-HT3 expression in SM preparations (5-HT3 receptor)	5-HT3 expression, 5-HT (5-HT3 receptor; SM preparations incubated with 5-HT, one per compound series)	In vitro cytotoxicity (IC50) (K-562)	In vitro cytotoxicity (IC50) (LAMA-84)	antimicrobial activity [4]
CC(C)C(Cc1ccccc1)NC(=O)c1ccccc1 (centres unmarked) [Compound 4b, N-(3-methyl-1-phenylbutan-2-yl)benzamide]	329 ± 20.4 µM	265 ± 20.2 µM	> 300 µM	5.09 ± 0.10 mV	1.40 ± 0.12 mV	4.50 ± 0.49 min⁻¹	22.28 ± 0.18 min⁻¹	do not affect the BEA	0%	−	no modulation on the 5-HT3R expression; also recorded: no 5-HT3 expression observed				
CC(C)C(Cc1ccccc1)NC(=O)c1ccccc1Cl (centres unmarked) [Compound 4c, 2-Chloro-N-(3-methyl-1-phenylbutan-2-yl)benzamide]	367 ± 8.4 µM	266 ± 16.8 µM	> 300 µM	5.34 ± 0.20 mV	1.56 ± 0.17 mV	4.42 ± 0.41 min⁻¹	26.16 ± 0.26 min⁻¹	do not affect the BEA	0%	−	no modulation on the 5-HT3R expression; also recorded: no 5-HT3 expression observed				
CC(C)C(Cc1ccccc1)NC(=O)Cc1ccccc1 (centres unmarked) [Compound 4d, N-(3-methyl-1-phenylbutan-2-yl)-2-phenylacetamide]	244 ± 18.5 µM	328 ± 15.9 µM	> 300 µM	4.97 ± 0.29 mV	0 * mV	4.82 ± 0.24 min⁻¹	0 * min^−1		0%	+	very weak non-specific effect; also recorded: weak 5-HT3 expression observed				
NCCc1c[nH]c2ccc(O)cc12 [Compound 5-HT, 5-hydroxytryptamine, reference compound]											higher number of 5-HT3R positive cells per section and 5-HT3 expression observed in the myenteric plexus	++			
CCN(CCCCOC(=O)c1ccc(OC)c(OC)c1)C(C)Cc1ccc(OC)cc1 (centres unmarked) [Mebeverine hydrochloride, mebeverine hydrochloride, reference compound]	85.4 ± 8.3 µM	72 ± 6.2 µM	> 300 µM								weak 5-HT3 expression observed		just under the hundred-micromolar range	just under the hundred-micromolar range	did not show any antimicrobial activity
